According to patent US20230338363A1, “COMBINATION CHEMO-IMMUNOTHERAPY FOR PANCREATIC CANCER USING THE IMMUNOGENIC EFFECTS OF AN IRINOTECAN SILICASOME NANOCARRIER PLUS ANTI-PD-1” (The Regents of the University of California, priority 2020, published 2023):

Legend:
PDAC = conditions: resected PDAC patients; p < 0.01; cited from earlier work
KPC cells [1] = test: Autophagy (LC3B, p62) and PD-L1 expression by IF staining and immunoblotting; assay type: cell-based, mouse; conditions: IRIN 300 µM or OX 500 µM, 24 h
Method: KPC cells were seeded in the µ-Slide 8 well. After cell attachment, the cells were treated by IRIN at 300 µM for 24 h. Control treatments included exposure to PBS, chloroquine (32 µM), rapamycin (100 nM) and IFN-γ (10 ng/ml). Before IF staining, the cells were washed with PBS and fixed with 4% paraformaldehyde at RT for 15 minutes. Cells were treated in 1% BSA (blocking reagent) plus 0.2% triton-X100 in PBS for 30 minutes. Subsequently, the cells were incubated with primary antibody that recognizes LC3B (Cell Signaling #2775, 1:200) or p62/SQSTM1 (Cell Signaling #23214, 1:800) in 1% BSA containing PBS solution at 4° C. overnight. The sample was washed twice in PBS and further stained using an Alexa Fluor® 488 conjugated goat anti-rabbit secondary antibody (Thermo Fisher, A-11008, 1:1000) and 5 µg/mL Hoechst 33342 dye for 1 h. Cell surface staining for PD-L1 assessment was carried out in fixed (4% paraformaldehyde) cells, using a staining process similar to the above protocol. Primary PD-L1 antibody (Abcam, ab213480, 1: 500) and Alexa Fluor® 594 conjugated goat anti-rabbit secondary antibody (Thermo Fisher, A-11012, 1:1000) were used. The cells were visualized using a Leica SP8-MD confocal microscope under the 100x objective lens.
To confirm the confocal staining results for LC3B, p62 and PD-L1, western blotting experiments were performed in KPC cells exposed to IRIN (300 µM) or OX (500 µM) for 24 hr. Another experiment also looked at the dose-dependent effect of IRIN at concentrations of 75, 150, 300 and 600 µM for 24 h. Briefly, ~2×10^5 KPC cells per well were seeded in 6 well-plates. After drug exposure, KPC cells were harvested and treated with cold RIPA lysis buffer (Cell Signaling # 9806S), supplemented with a cocktail of protease and phosphatase inhibitors (Cell Signaling #5872) and incubated on ice for 30 mins. After centrifugation of the lysates at 12,000 rpm for 10 min, protein concentration was quantified by a Bradford assay (Biorad). Equal amounts of protein in the supernatants were loaded onto a 10-20% Tris-glycine SDS-PAGE gel (Invitrogen, Grand Island, NY). The proteins were subsequently transferred to a PVDF membrane. The membrane was blocked with 5% non-fat dry milk/TBST, before incubation with primary and HRP-conjugated secondary antibodies. The primary antibodies included: LC3B (Cell Signaling #2775), p62/SQSTM1 (Cell Signaling #5114), NF-κB p65 (Cell Signaling #8242), Phospho-NF-xB p65 (Cell Signaling #3033) and PD-L1 (Abcam, ab213480). The blots were developed by soaking in ECL substrate (Thermo Fisher Scientific). Densitometric analysis of each protein band on the film was quantified by ImageJ software and normalized to the intensity of a corresponding housekeeping protein.
(§1) The of the IRIN silicasome on lysosomal alkalization was performed at drug concentrations of 75 µM and 300 µM in KPC cells. Empty silicasomes (in which a 500 µg/mL particle dose is representative of an encapsulated IRIN dose of 300 µM) was included as control. The assessment of LC3B, p62 and PD-L1 immunoblotting and IF staining were performed in KPC cells during treatment with the IRIN silicasome or empty silicasomes, as described for the free drug.

KPC tumor = test: Vaccination experiment with dying chemo-treated KPC cells; assay type: in vivo, mouse
Method: The vaccination schedule is highlighted in FIG. 2, panel C. Eight million KPC cells were seeded in a tissue culture dish. After cellular attachment, IRIN (300 µM or OX (500 µM were added for 24 h. Cells were collected and washed before resuspended in 0.8 mL cold PBS. For vaccination, each mouse received subcutaneous (SC) injection of a 100 µL suspension of chemo-treated cells in the right flank. Control animals received SC injection with 0.1 mL PBS. The vaccination was repeated after 7 days. Fourteen days after the 1st injection, the animals received SC injection of normal KPC cells (1 million cells in 0.1 mL PBS) in the contralateral (left) flank. Tumor growth was measured by a digital caliper every 2-3 days, and the tumor volume calculated according to the formula: length × width^2 /2. Animals were sacrificed on day 26 and the tumors were collected, weighed and fixed in 10% formalin, followed by paraffin embedding and sectioning to derive to 4 µm thick slices for IHC analysis. Primary antibodies to CD8 (#14-0808-82) and FoxP3 (#13-5773-82) were purchased from ThermoFisher. IHC staining was performed in the UCLA Translational Pathology Core Laboratory (TPCL). The slides were scanned and images assessed by using Aperio ImageScope software (Leica).

KPC cells [2] = test: Lysosomal alkalization, LysoTracker Red DND 99 confocal microscopy; assay type: cell-based, mouse; conditions: CQ 32 µM, 24 h
Method: Approximately 1.5×10^4 KPC cells were seeded in µ-Slide 8 well (ibidi, 80826). To reveal the intracellular distribution of IRIN, attached KPC cells were treated with IRIN (300 µM) for 24 h. Cell membranes were stained using an Alexa Fluor® 594 conjugated WGA dye (Invitrogen™, W11262) at 2 µg/mL for 10 minutes. After washing, the cells were visualized using a Leica SP8-MD confocal microscope under the 100× objective lens. The excitation and emission wavelengths for IRIN were 405 nm and 440~490 nm, respectively^[51]
IRIN-treated KPC cells were washed and replenished with fresh media containing 100 nM DND-99 dye and 5 µg/mL Hoechst 33342 for nuclear staining. The cells were incubated at 37° C. for 0.5 h, followed by washing with phenol red free media. The cells were then visualized using a Leica SP8-MD confocal microscope under the 100× objective lens.
as §1

In the case of `Nc1ccn([C@@H]2O[C@H](CO)[C@@H](O)C2(F)F)c(=O)n1` [GEM, gemcitabine], the median overall survival (PDAC) is listed as 35.0 months.
With `O=C1[O][Pt]2([NH][C@@H]3CCCC[C@H]3[NH]2)[O]C1=O` [oxaliplatin] the PD-L1 expression (KPC cells [1]) was “failed to upregulate PD-L1 expression”, the “autophagy flux (Western blotting of LC3 and p62)” value (KPC cells [1]) was “induced autophagy” and the “growth of tumor on the opposite flank vs PBS control” value (KPC tumor; KPC cells treated with 300 µM IRIN or 500 µM OX, p <0.05) was “improved the shrinkage of the tumor on the opposite flank significantly”. The “CD8+ staining number (IHC)” value (KPC tumor; harvested tumors, day 26) was “slight increase” and the “CD8+/Treg cells ratio (IHC)” value (KPC tumor; harvested tumors, day 26) was “significantly (p <0.01) increased”.
In the case of chloroquine diphosphate salt, the “alkalizing effect on lysosomal pH” value (KPC cells [2]) was “alkalizing effect of IRIN was duplicated”.
